Holding throughout (details): at 1 µM
Assay [1] relates to T1, Receptor-type tyrosine-protein kinase FLT3 (Homo sapiens), P36888 [D835H].
T1 sequence (whole entry): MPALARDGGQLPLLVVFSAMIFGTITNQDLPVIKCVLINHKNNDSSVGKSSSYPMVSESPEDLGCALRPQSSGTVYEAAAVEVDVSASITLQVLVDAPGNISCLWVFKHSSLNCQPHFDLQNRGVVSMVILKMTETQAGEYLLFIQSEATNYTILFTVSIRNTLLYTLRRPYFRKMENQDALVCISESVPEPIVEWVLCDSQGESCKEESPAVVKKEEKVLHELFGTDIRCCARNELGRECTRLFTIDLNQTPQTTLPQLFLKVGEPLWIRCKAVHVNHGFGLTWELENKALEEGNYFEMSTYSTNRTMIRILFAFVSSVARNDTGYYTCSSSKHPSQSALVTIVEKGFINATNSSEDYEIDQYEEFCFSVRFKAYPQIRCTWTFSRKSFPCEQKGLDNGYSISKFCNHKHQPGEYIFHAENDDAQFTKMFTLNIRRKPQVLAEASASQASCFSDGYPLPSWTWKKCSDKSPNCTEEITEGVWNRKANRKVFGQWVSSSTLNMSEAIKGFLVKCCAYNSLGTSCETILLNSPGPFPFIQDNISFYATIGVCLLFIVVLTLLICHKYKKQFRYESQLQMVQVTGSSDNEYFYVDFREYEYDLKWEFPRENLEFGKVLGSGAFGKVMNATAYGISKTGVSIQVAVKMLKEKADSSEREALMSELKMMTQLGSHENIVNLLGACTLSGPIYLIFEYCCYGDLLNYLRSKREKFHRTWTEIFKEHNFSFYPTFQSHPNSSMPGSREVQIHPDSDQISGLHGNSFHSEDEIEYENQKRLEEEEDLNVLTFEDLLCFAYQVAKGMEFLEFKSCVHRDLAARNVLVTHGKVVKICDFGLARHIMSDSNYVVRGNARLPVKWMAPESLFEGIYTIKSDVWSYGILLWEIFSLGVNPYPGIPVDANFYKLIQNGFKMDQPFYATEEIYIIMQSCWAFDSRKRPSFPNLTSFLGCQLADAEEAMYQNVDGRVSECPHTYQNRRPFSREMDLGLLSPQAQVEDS
Put plainly: (§1) Selectivity interaction (KinomeScan (DiscoverX)) EUB0001619a FLT3.

Assay [2] deals with T2, Receptor-type tyrosine-protein kinase FLT3 (Homo sapiens), P36888 [R834Q].
T2 sequence (whole entry): T1 sequence (whole entry) with R834Q, H835D
The assay is described as §1.

Assay [3] has as its target T3, Receptor-interacting serine/threonine-protein kinase 1 (Homo sapiens) (UniProt Q13546).
T3 sequence (whole entry): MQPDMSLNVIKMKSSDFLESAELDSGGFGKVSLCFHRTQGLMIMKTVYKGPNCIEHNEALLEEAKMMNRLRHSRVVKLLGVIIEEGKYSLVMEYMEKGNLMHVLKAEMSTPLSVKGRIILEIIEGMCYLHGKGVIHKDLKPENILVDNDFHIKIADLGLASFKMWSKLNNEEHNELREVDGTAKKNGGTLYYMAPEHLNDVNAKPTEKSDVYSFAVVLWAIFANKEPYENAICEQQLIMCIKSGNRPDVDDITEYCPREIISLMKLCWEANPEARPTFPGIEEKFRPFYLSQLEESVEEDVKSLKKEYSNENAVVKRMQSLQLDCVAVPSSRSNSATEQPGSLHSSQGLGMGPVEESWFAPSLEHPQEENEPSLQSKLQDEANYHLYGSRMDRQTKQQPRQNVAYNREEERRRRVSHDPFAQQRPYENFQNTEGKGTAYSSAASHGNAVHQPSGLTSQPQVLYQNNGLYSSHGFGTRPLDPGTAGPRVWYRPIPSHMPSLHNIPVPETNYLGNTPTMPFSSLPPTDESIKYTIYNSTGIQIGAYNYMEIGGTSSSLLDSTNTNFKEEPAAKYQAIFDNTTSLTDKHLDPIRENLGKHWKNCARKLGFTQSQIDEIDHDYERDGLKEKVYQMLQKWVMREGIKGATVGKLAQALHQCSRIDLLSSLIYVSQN
Kind of assay: Selectivity interaction (Kinase panel (Eurofins)) EUB0001564a RIPK1.

Where a chain is given by its changes, count along the chain named.

Among the data in ChEMBL document CHEMBL5465560, “Selectivity Literature for EUbOPEN Chemogenomic Library” (2024) are % of control and % of inhibition values, retold here.

For the molecule `N#Cc1cccc(-c2c[nH]c3ncnc(N4CCOCC4)c23)c1`, the % of control is 72% in assay [1] and 93% in assay [2].

For `CC[C@@H](Nc1c(C#N)c(-c2ccc(-c3cccc(C)c3F)cc2)nc2cnccc12)C(=O)O` [BAY-091], in assay [3], the % of inhibition was found to be 21.2%.
